Experiments:
[1] = molecular target: T1, CSNK1A1 (Homo sapiens (Human), UniProt P48729); experiment: CSNK1A1 Assay 2 (ADP-Glo, 1 μM ATP, substrate biotin-Ahx-KRRRAL-pS-VASLPGL); type: biochemical; details: median, read-out: CSNK1A1 Assay 2 IC50 [mol/l] (median)
Experimental: CSNK1A1-inhibitory activity of compounds of the present invention in presence of 1 μM adenosine-tri-phosphate (ATP) was quantified employing the CSNK1A1 assay as described in the following paragraphs. In essence, the enzyme activity is measured by quantification of the adenosine-di-phosphate (ADP), which is generated as a co-product of the enzyme reaction, via the “ADP-Glo™ Kinase Assay” kit from the company Promega. This detection system works as follows: In a first step the ATP not consumed in the kinase reaction is quantitatively converted to cAMP employing an adenylate cyclase (“ADP-Glo-reagent”), then the adenylate cyclase is stopped and the ADP generated in the kinase reaction converted to ATP which generates in a luciferase-based reaction a glow-luminescence signal (“Kinase Detection Reagent”).
(§1) Recombinant fusion protein of N-terminal Glutathion-S-Transferase (GST) and full-length human CSNK1A1, expressed by baculovirus infected insect cells and purified via Glutathion affinity chromatography, was purchased from Life Technologies (product no. PV4174) and used as enzyme. As substrate for the kinase reaction the biotinylated peptide biotin-Ahx-KRRRAL-pS-VASLPGL (C-terminus in amide form) was used which can be purchased e.g. from the company Biosyntan (Berlin-Buch, Germany).
For the assay 50 nl of a 100 fold concentrated solution of the test compound in DMSO was pipetted into a white 1536-well microtiter plate (Greiner Bio-One, Frickenhausen, Germany), 2 μL of a solution of CSNK1A1 in aqueous assay buffer [50 mM HEPES pH 7.5, 10% (v/v) glycerol, 10 mM MgCl2, 50 mM NaCl, 1 mM dithiothreitol, 0.01% (w/v) bovine serum albumin, 0.01% (v/v) Triton X-100] were added and the mixture was incubated for 15 min at 22° C. to allow pre-binding of the test compounds to the enzyme before the start of the kinase reaction. […] The concentration of CSNK1A1 was adjusted depending of the activity of the enzyme lot and was chosen appropriate to have the assay in the linear range, a typical concentrations are about 0.0375 ng/μL. The reaction was stopped by the addition of 2.5 μL of “ADP-Glo-reagent” (1:1.5 fold diluted with water) and the resulting mixture was incubated at 22° C. for 1 h to convert the ATP not consumed in the kinase reaction completely […]. Subsequently 2.5 μL of the “kinase detection reagent” (1.2 fold more concentrated than recommended by the producer) were added, the resulting mixture was incubated at 22° C. for 1 h and then the luminescence measured with a suitable measurement instrument (e.g. Viewlux™ from Perkin-Elmer). The amount of emitted light was taken as a measure for the amount of ADP generated and thereby for the activity of the CSNK1A1.

[2] = molecular target: T1, CSNK1A1; experiment: CSNK1A1 High ATP Assay (ADP-Glo, 1 mM ATP); type: biochemical; details: median, read-out: CSNK1A1 high ATP assay IC50 [mol/l] (median)
Experimental: CSNK1A1-inhibitory activity of compounds of the present invention in presence of 1 mM adenosine-tri-phosphate (ATP) was quantified employing the CSNK1A1-high-ATP-assay as described in the following paragraphs. In essence, the enzyme activity is measured by quantification of the adenosine-di-phosphate (ADP), which is generated as a co-product of the enzyme reaction, via the “ADP-Glo™ Kinase Assay” kit from the company Promega. This detection system works as follows: In a first step the ATP not consumed in the kinase reaction is quantitatively converted to cAMP employing an adenylate cyclase (“ADP-Glo-reagent”), then the adenylate cyclase is stopped and the ADP generated in the kinase reaction converted to ATP which generates in a luciferase-based reaction a glow-luminescence signal (“Kinase Detection Reagent”).
as §1
For the assay 50 nl of a 100 fold concentrated solution of the test compound in DMSO was pipetted into a white low volume 384-well microtiter plate (Greiner Bio-One, Frickenhausen, Germany), 2 μL of a solution of CSNK1A1 in aqueous assay buffer [50 mM HEPES pH 7.5, 10% (v/v) glycerol, 10 mM MgCl2, 50 mM NaCl, 1 mM dithiothreitol, 0.01% (w/v) bovine serum albumin, 0.01% (v/v) Triton X-100] were added and the mixture was incubated for 15 min at 22° C. to allow pre-binding of the test compounds to the enzyme before the start of the kinase reaction. […] The concentration of CSNK1A1 was adjusted depending of the activity of the enzyme lot and was chosen appropriate to have the assay in the linear range, a typical concentration is about 0.4 ng/μL. The reaction was stopped by the addition of 2.5 μL of “ADP-Glo-reagent” (1:1.5 fold diluted with water) and the resulting mixture was incubated at 22° C. for 1 h to convert the ATP not consumed in the kinase reaction completely […]. Subsequently 2.5 μL of the “kinase detection reagent” (1.2 fold more concentrated than recommended by the producer) were added, the resulting mixture was incubated at 22° C. for 1 h and then the luminescence measured with a suitable measurement instrument (e.g. Viewlux™ from Perkin-Elmer). The amount of emitted light was taken as a measure for the amount of ADP generated and thereby for the activity of the CSNK1A1.

T1 sequence (P48729 whole entry): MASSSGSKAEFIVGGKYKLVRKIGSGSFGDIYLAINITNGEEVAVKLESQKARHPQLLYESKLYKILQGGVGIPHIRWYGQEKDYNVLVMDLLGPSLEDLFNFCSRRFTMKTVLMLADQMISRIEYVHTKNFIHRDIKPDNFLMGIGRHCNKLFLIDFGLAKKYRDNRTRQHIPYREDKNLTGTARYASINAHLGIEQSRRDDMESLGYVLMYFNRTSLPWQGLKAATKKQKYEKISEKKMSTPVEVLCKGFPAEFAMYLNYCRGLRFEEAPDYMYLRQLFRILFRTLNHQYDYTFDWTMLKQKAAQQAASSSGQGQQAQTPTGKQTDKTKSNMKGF

Structure (SMILES) | IC50 [1] [nM] | IC50 [2] [nM]
CC(C(=O)Nc1cc(-c2[nH]c3ccc(F)nc3c2-c2ccccn2)ccn1)c1ccc(F)cc1 (racemic) [Example 1, 2-(4-fluorophenyl)-N-{4-[5-fluoro-3-(pyridin-2-yl)-1H-pyrrolo[3,2-b]pyridin-2-yl]pyridin-2-yl}propanamide] | 1.66 | 16
CC(C(=O)Nc1cc(-c2[nH]c3cccnc3c2-c2ccccn2)ccn1)c1ccc(F)cc1 (racemic) [Example 6, 2-(4-fluorophenyl)-N-{4-[3-(pyridin-2-yl)-1H-pyrrolo[3,2-b]pyridin-2-yl]pyridin-2-yl}propanamide] | 1.73 | 8.47
CC(C(=O)Nc1cc(-c2[nH]c3cccnc3c2-c2ccccc2)ccn1)c1ccc(F)cc1 (racemic) [Example 11, 2-(4-fluorophenyl)-N-[4-(3-phenyl-1H-pyrrolo[3,2-b]pyridin-2-yl)pyridin-2-yl]propanamide] | 6.11 | 321
Cc1cc2[nH]c(-c3ccnc(NC(=O)C(C)c4ccc(F)cc4)c3)c(-c3ccccn3)c2nc1F (racemic) [Example 28, N-{4-[5-fluoro-6-methyl-3-(pyridin-2-yl)-1H-pyrrolo[3,2-b]pyridin-2-yl]pyridin-2-yl}-2-(4-fluorophenyl)propanamide] | 4.61 | 59.1
COCC(C(=O)Nc1cc(-c2[nH]c3cccnc3c2-c2ccccn2)ccn1)c1ccc(F)cc1 (racemic) [Example 43, (2RS)-2-(4-fluorophenyl)-3-methoxy-N-(4-(3-(pyridin-2-yl)-1H-pyrrolo[3,2-b]pyridin-2-yl)pyridin-2-yl)propanamide] | 3.51 | 40.1
COCCC(C(=O)Nc1cc(-c2[nH]c3cccnc3c2-c2ccccn2)ccn1)c1ccc(F)cc1 (racemic) [Example 44] | 4.97 | 59.2
COCC(C(=O)Nc1cc(-c2[nH]c3cc(F)cnc3c2-c2ccccn2)ccn1)c1ccc(F)cc1 (racemic) [Example 45, (2RS)-2-(4-fluorophenyl)-N-[4-[6-fluoro-3-(2-pyridyl)-1H-pyrrolo[3,2-b]pyridin-2-yl]-2-pyridyl]-3-methoxy-propanamide] | 4.83 | 38.8
CC(C(=O)Nc1cc(-c2[nH]c3ccc(F)nc3c2-c2ccccn2)ccn1)c1ccc(F)cc1 (single isomer, unassigned; (+)) [Example 3, (+)-2-(4-fluorophenyl)-N-{4-[5-fluoro-3-(pyridin-2-yl)-1H-pyrrolo[3,2-b]pyridin-2-yl]pyridin-2-yl}propanamide] | 1 | 12
CC(C(=O)Nc1cc(-c2[nH]c3cccnc3c2-c2ccccn2)ccn1)c1ccc(F)cc1 (single isomer, unassigned; (+)) [Example 7, (+)-2-(4-fluorophenyl)-N-{4-[3-(pyridin-2-yl)-1H-pyrrolo[3,2-b]pyridin-2-yl]pyridin-2-yl}propanamide] | 0.949 | 4.32
CC(C)C(C(=O)Nc1cc(-c2[nH]c3ccc(F)nc3c2-c2ccccn2)ccn1)c1ccc(F)cc1 (single isomer, unassigned; (+)) [Example 26, (+)-2-(4-fluorophenyl)-N-{4-[5-fluoro-3-(pyridin-2-yl)-1H-pyrrolo[3,2-b]pyridin-2-yl]pyridin-2-yl}-3-methylbutanamide] | 3.5 | 48.6
Cc1cc2[nH]c(-c3ccnc(NC(=O)C(C)c4ccc(F)cc4)c3)c(-c3ccccn3)c2nc1F (single isomer, unassigned; (+)) [Example 29, (+)-N-{4-[5-fluoro-6-methyl-3-(pyridin-2-yl)-1H-pyrrolo[3,2-b]pyridin-2-yl]pyridin-2-yl}-2-(4-fluorophenyl)propanamide] | 13.8 | 1140
CC(C(=O)Nc1cc(-c2[nH]c3ccc(F)nc3c2-c2ccccn2)ccn1)c1ccc(F)cc1 (single isomer, unassigned; (-)) [Example 2, (−)-2-(4-fluorophenyl)-N-{4-[5-fluoro-3-(pyridin-2-yl)-1H-pyrrolo[3,2-b]pyridin-2-yl]pyridin-2-yl}propanamide] | 10.9 | 886
CC(C(=O)Nc1cc(-c2[nH]c3cccnc3c2-c2ccccn2)ccn1)c1ccc(F)cc1 (single isomer, unassigned; (-)) [Example 8, (−)-2-(4-fluorophenyl)-N-{4-[3-(pyridin-2-yl)-1H-pyrrolo[3,2-b]pyridin-2-yl]pyridin-2-yl}propanamide] | 7.53 | 334
CC(C)C(C(=O)Nc1cc(-c2[nH]c3ccc(F)nc3c2-c2ccccn2)ccn1)c1ccc(F)cc1 (single isomer, unassigned; (-)) [Example 25, (−)-2-(4-fluorophenyl)-N-{4-[5-fluoro-3-(pyridin-2-yl)-1H-pyrrolo[3,2-b]pyridin-2-yl]pyridin-2-yl}-3-methylbutanamide] | 23.9 | 2320
Cc1cc2[nH]c(-c3ccnc(NC(=O)C(C)c4ccc(F)cc4)c3)c(-c3ccccn3)c2nc1F (single isomer, unassigned; (-)) [Example 30, (−)-N-{4-[5-fluoro-6-methyl-3-(pyridin-2-yl)-1H-pyrrolo[3,2-b]pyridin-2-yl]pyridin-2-yl}-2-(4-fluorophenyl)propanamide] | 1.69 | 23.7
O=C(Cc1ccc(F)cc1)Nc1cc(-c2[nH]c3ccc(F)nc3c2-c2ccccn2)ccn1 [Example 4, 2-(4-fluorophenyl)-N-{4-[5-fluoro-3-(pyridin-2-yl)-1H-pyrrolo[3,2-b]pyridin-2-yl]pyridin-2-yl}acetamide] | 0.739 | 5.72
O=C(Cc1ccc(F)cc1)Nc1cc(-c2[nH]c3cccnc3c2-c2ccccn2)ccn1 [Example 5, 2-(4-fluorophenyl)-N-{4-[3-(pyridin-2-yl)-1H-pyrrolo[3,2-b]pyridin-2-yl]pyridin-2-yl}acetamide] | 1.06 | 6.1
O=C(Cc1ccc(F)cc1)Nc1cc(-c2[nH]c3cc(F)cnc3c2-c2ccccn2)ccn1 [Example 9, 2-(4-fluorophenyl)-N-{4-[6-fluoro-3-(pyridin-2-yl)-1H-pyrrolo[3,2-b]pyridin-2-yl]pyridin-2-yl}acetamide] | 1.68 | 33.6
O=C(Cc1ccc(F)cc1)Nc1cc(-c2[nH]c3cc(F)cnc3c2-c2ccccc2)ccn1 [Example 10, 2-(4-fluorophenyl)-N-[4-(6-fluoro-3-phenyl-1H-pyrrolo[3,2-b]pyridin-2-yl)pyridin-2-yl]acetamide] | 3.83 | 302
O=C(Cc1ccc(F)cc1)Nc1cc(-c2[nH]c3cccnc3c2-c2ccccc2)ccn1 [Example 14, 2-(4-fluorophenyl)-N-[4-(3-phenyl-1H-pyrrolo[3,2-b]pyridin-2-yl)pyridin-2-yl]acetamide] | 1.04 | 45.5

From patent publication US20230339939A1 (Bayer Aktiengesellschaft, priority 2020, published 2023)
